Assay results as given in PMC8043168, “Tribolium castaneum defensin 1 kills Moraxella catarrhalisin an in vitro infection model but does not harm commensal bacteria” (Virulence, 2021).
≈ marks a conversion by molar mass, not a printed value. Where two headings read alike, the source gives them in different places. Ends that are not written are not given here.

Key:
[1] = tested on: M. catarrhalis; assay type: cell-based, Moraxella catarrhalis
Method: Colonies of M. catarrhalis were grown on sheep blood agar plates for 12 h at 37°C and 5% CO2 before transfer to brain heart infusion (BHI) medium (Carl Roth, Karlsruhe, Germany) at an initial concentration of 1.6 × 10^7 cells/ml (OD600 = 0.08) as determined using an Ultraspec 10 cell densitometer (Amersham BioSciences, Little Chalfont, UK). Bacteria were cultivated in a shaking incubator at 37°C until the concentration reached 1.2 × 10^8 cells/ml (OD600 = 0.6) and then diluted to 2 × 10^6 cells/ml (OD600 = 0.011). To establish the optimal concentration ranges for AMP activity, defensin 1 was prepared as a two-fold dilution series from 12.5 µM to 1.56 µM and was added to the bacterial cultures, which were incubated as above for a further 16 h. Untreated cultures were used as controls. The OD600 was measured automatically at 30-min intervals using an Infinite M200 Pro plate reader (Tecan Life Sciences, Männedorf, Switzerland). […] They were cultivated for a further 15 h at 37°C and 5% CO2 in serial dilution before manual counting of the colonies on each plate.
Table S1. Detailed characterization of tested AMPs. M.c. were grown to an Optical Density (OD) 600nm of 0.6 in Brain Heart Infusion (BHI) Medium.
Upon dilution to OD600nm= 0.01, M.c. were incubated with declining amounts of indicated AMPs (25 μM to 0.048 μM at halving intervals) at 37°C with 5% CO2.
OD600nm was measured at 30 min intervals to establish the minimal inhibitory concentration (MIC). pI = isoelectric point, MW = molecular weight in kiloDalton.
MIC AMP name AMP class Organism Amino Acid Sequence pIMWPurity Retention time [min] modification
0.195 µM Cecropin A α-helical Hyalophora cecropia […] 10.75 4.00 91.06 7.30 n-term. amidation
0.39 µM Sarcotoxin IA α-helical Sarcophaga peregrina […] 11.07 4.16 91.37 9.37 n-term. amidation
~ 25µM Stomoxyn α-helical Stomoxys calcitrans […] 11.26 4.40 95.34 10.08 n-term. amidation
~ 25µM Spinigerin linear Pseudacanthotermes spiniger […] 11.07 3.00 96.23 12.45 none
>25µM Apidaecin Ia proline-rich Apis mellifera GNNRPVYIPQPRPPHPRI 11.71 2.11 92.98 16.91 none
>25µM Drosocin proline-rich Drosophila melanogaster GKPRPYSPRPTSHPRPIRV 12.01 2.20 92.86 11.65 none
>25µM Pyrrhocoricin proline-rich Pyrrhocoris apterus […] 10.27 2.34 93.17 11.38 none
>25 µM Metalnikowin-1 proline-rich Palomena prasina […] 9.98 1.84 92.85 13.36 none
>25 µM Metalnikowin-2A proline-rich Palomena prasina […] 9.98 1.84 92.39 10.85 none
>25 µM Metchnikowin-1 proline-rich Drosophila melanogaster […] 10.74 3.03 99.06 11.50 none
>25 µM Metchnikowin-2 proline-rich Drolophila melanogaster […] 11.54 3.04 97.16 11.46 none
12.5 µM Defensin 1 disulfide stabilized Tribolium castaneum […] 9.7 4.83 90.53 18.41 none
~ 25 µM Cecropin-like α-helical Lucilia sericata[…] 10.35 6.66 90.28 12.01 none
0.195 µM Cecropin α-helical Galleria mellonella […] 10.21 4.21 93.61 12.33 n-term. amidation
0.37 µM Cecropin α-helical Lucilia sericata […] 10.56 4.26 94.31 10.83 n-term. amidation
12.5 µM Stomoxyn α-helical Lucilia sericata […] 10.73 4.38 90.37 13.35n-term. amidation n-term.
1.56 µM Cecropin(Sarcotoxin) α-helical Eristalis tenax […] 10.56 4.14 90.80 9.76 none

[2] = tested on: mice; conditions: dose of 10 mg/kg; cited from earlier work
[3] = cited from earlier work
Description: We furthermore tested the effect of defensin 1 and sarcotoxin 1 C on the commensals E. faecalis and E. coli. Selectivity of AMPs may provide an important therapeutic advantage over broad-spectrum antibiotics because AMPs targeting pathogens but not commensals would avoid the common side effects of antibiotic therapy. […] Sarcotoxin 1 C was previously shown to inhibit 90% of clinical multidrug-resistant isolates of Ent ...

[4] = cited from earlier work; remark: listed apart in the source
[5] = M. catarrhalis grown to OD600 0.6 in BHI, diluted to OD600 0.01, AMP 25 µM to 0.048 µM at halving intervals, 37°C, 5% CO2, OD600 every 30 min

| Compound | MIC (minimal inhibitory concentration) ([1]; 12 h) | MIC (minimal inhibitory concentration) [1, 5] | also measured |
| --- | --- | --- | --- |
| GRPNPVNNKPTPHPRL [Formaecin-1] | > 25 µM | – | – |
| GFLKKIGKKLEGAVQRTRDATIQTIAVAQAAANVAATAKQ [Cecropin(Sarcotoxin)] | – | 1.56 µM | – |
| GNNRPVYIPQPRPPHPRI [Apidaecin Ia] | > 25 µM | – | – |
| RGFRKHFNKLVKKVKHTISETAHVAKDTAVIAGSGAAVVAAT-NH2 [Stomoxyn (Stomoxys calcitrans)] | – | ~ 25 µM | – |
| SIGSAFKKALPVAKKIGKAALPIAKAALP [Ceratotoxin] | – | > 25 µM | – |
| HRHQGPIFDTRPSPFNPNQPRPGPIY [Metchnikowin-1] | > 25 µM | – | – |
| VDKPDYRPRPRPPNM [Metalnikowin-1] | > 25 µM | – | – |
| GKPRPYSPRPTSHPRPIRV [Drosocin] | > 25 µM | – | – |
| VDKPDYRPRPWPRPN [Metalnikowin-2A] | > 25 µM | – | – |
| CC[C@H](C)[C@H](NC(=O)CNC(=O)[C@H](CC(C)C)NC(=O)CNC(=O)[C@H](CCC(N)=O)NC(=O)[C@@H](NC(=O)[C@@H](NC(=O)[C@H](C)NC(=O)[C@H](CC(=O)O)NC(=O)[C@H](CCCNC(=N)N)NC(=O)[C@@H](NC(=O)[C@H](Cc1c[nH]cn1)NC(=O)[C@H](CCC(N)=O)NC(=O)CNC(=O)[C@@H](NC(=O)[C@H](CCCNC(=N)N)NC(=O)[C@H](CCC(=O)O)NC(=O)[C@@H](NC(=O)[C@H](CCCCN)NC(=O)[C@H](CCCCN)NC(=O)CNC(=O)[C@@H](NC(=O)[C@H](CCCCN)NC(=O)[C@H](CCCCN)NC(=O)[C@H](CC(C)C)NC(=O)[C@H](Cc1c[nH]c2ccccc12)NC(=O)CN)[C@@H](C)CC)[C@@H](C)CC)C(C)C)[C@@H](C)O)[C@@H](C)O)[C@@H](C)CC)C(=O)N[C@@H](C)C(=O)N[C@@H](CCC(N)=O)C(=O)N[C@@H](CCC(N)=O)C(=O)N[C@@H](C)C(=O)N[C@@H](C)C(=O)N[C@@H](CC(N)=O)C(=O)N[C@H](C(=O)N[C@@H](C)C(=O)N[C@@H](C)C(=O)N[C@H](C(=O)N[C@@H](C)C(=O)N[C@@H](CCCNC(=N)N)C(N)=O)[C@@H](C)O)C(C)C [Sarcotoxin IA] | – | 0.39 µM (≈ 1.62 µg/mL) | – |
| FVPYNPPRPGQSKPFPSFPGHGPFNPKIQWPYPLPNPGH [Abaecin] | > 25 µM | – | – |
| GGLKKLGKKLEGAGKRVFNAAEKALPVVAGAKALRK [Cecropin A (Aedes aegypti)] | 1.56 µM | – | – |
| VDKGSYLPRPTPPRPIYNRN [Pyrrhocoricin] | – | > 25 µM | – |
| GFRKRFNKLVKKVKHTIKETANVSKDVAIVAGSGVAVGAAMG-NH2 [Stomoxyn (Lucilia sericata)] | 12.5 µM | – | – |
| DLRFLYPRGKLPVPTPPPFNPKPIYIDMGNRY [Lebocin-1] | > 25 µM | – | – |
| HRRQGPIFDTRPSPFNPNQPRPGPIY [Metchnikowin-2] | > 25 µM | – | – |
| HVDKKVADKVLLLKQLRIMRLLTRL [Spinigerin] | ~ 25 µM | – | – |
| KWKIFKKIEKAGRNIRDGIIKAGPAVSVVGEAATIYKTG-NH2 [Cecropin (Galleria mellonella)] | 0.195 µM | – | – |
| KWKLFKKIEKVGQNIRDGIIKAGPAVAVVGQATQIAK-NH2 [Cecropin A (Hyalophora cecropia)] | 0.195 µM | – | – |
| GWLKKIGKKIERVGQHTRDATIQTIGVAQQAANVAATLKG-NH2 [Sarcotoxin 1 C] | – | 0.37 µM | acute toxicity in mice [2]: no acute toxicity; broad-panel off-target profile [3]: inconspicuous; cytotoxicity [3]: no cytotoxicity; in vitro therapeutic index [3]: good; cardiotoxicity [4]: no cytotoxicity or cardiotoxicity |
